# Read-outs that look alike come from different tables or passages of the source.
# Tests used:
# [1] = tested on: influenza antigen (Influenza APR834); format: in vivo, Balb/c mice; conditions: ID; for Trend in immune response as indicated by ELISA signal (1:123 serum screening dilution): mice
# [2] = tested on: Influenza A/Panama/2007/99 (H3N2); assay: HAI assay after ID microneedle immunization of rats with FLUZONE +/- Tween 80; format: in vivo, Brown Norway rats; conditions: for % Seroconversion (HAI Titre ≧ 10) / % Seroprotection (HAI Titre ≧ 40): day 21, Tween 80 at 5% where added
# Experimental: Measurement of HA specific Antibody Titer by HAI: Sera were collected and used as test samples. Fresh cRBC reagent was prepared daily. Sodium Chloride solution (0.9%) was added to wells of a Falcon® Non-Tissue Culture Treated Plate, 96 well, U-Bottom with Low Evaporation Lid. Viral lysate stock (8 HA/50 μl) was added to wells. Appropriate volume of test serum was added to a single row or column of “start wells,” and a serial dilution was performed by transferring 50 μl of the serum dilution from the “start wells” into the next well, creating a 1:2 dilution. When completed, wells contained a serial serum dilution and a constant amount of viral lysate antigen, being 4 HA per well. cRBC reagent (0.5%, 50 μl) was added to each well, including negative control wells, which contained no HA. The assay was allowed to incubate for 45 minutes at room temperature, ensuring that the plate is not jostled. For determination, plates were tilted at a 70-degree angle for 5 minutes, and viewed on alight box.
# HAI assays were performed with A-New Caledonia (H1N1), A-Panama (H3N2) and B-Hong Kong antigen as single test antigens and trivalent pools.
# Female Brown Norway (BN) rats (n=10/group) were immunized by ID delivery using Microneedles (34 gauge needle inserted into a 3.5″ long catheter to an exposed needle length of 1.0 mm). ID delivery by Microneedles consisted of 2 bolus injections of 100 μl by hand to either side of the lower back of the rat, approximately 10 seconds in duration (each bolus), using an attached 1 cc syringe. Rats were immunized with either of two different doses of the 2003/2004 season of FLUZONE™ (Aventis Pasteur, Swiftwater, Pa.), for a total of 9µg (high dose) or 0.9µg (low dose) hemagglutinin (HA) per rat, 3µg or 0.3µg HA of each strain of influenza in the vaccine (A/New Calcdonia/20/99 H1N1, A/Panama/2007/99H3N2, and B/Hong Kong/1434/2002).
# The rats were bled 21 days after immunization and their serum assayed for neutralizing antibody titres using the hemagglutination inhibition (HAI) assay, and for influenza-specific antibody titres by ELISA. Both assays were performed against the H3N2 strain of influenza in the FLUZONE™ formulation to characterize the immune response.
# [3] = tested on: Influenza A/Panama/2007/99 (H3N2); assay: Influenza-specific ELISA titre after ID microneedle immunization of rats with FLUZONE +/- Tween 80; format: in vivo, Brown Norway rats; conditions: 5% Tween80 added to low or high dose FLUZONE
# Experimental: Antibody response to FLUZONE™ was measured by coating an influenza antigen (Influenza APR834, purified/inactivated at 2 mg/mL from Charles River SPAFAS or Alternatively New Calcdonia, Panama or B-Hong Kong lysates from Biodesign Inc.) on a microtiter plate (96-well NUNC IMMUNO-PLATE™ with MAXISORP™ surface). The coating solution was approximately 3.8µg/mL of influenza protein in carbonate buffer (Sigma Chemical Co. Cat. C3041). The coating antigen was exposed to the Nunc plate for one hour at 37° C. The coating solution was discarded and replaced with a blocking solution (phosphate buffered saline with Tween™ 20 (PBS-TW20); Sigma Chemical Co. Cat. P-3563) and 5% w/v nonfat dry milk. The blocking solution was exposed to the plate surface for two hours at 37° C. The blocking solution was subsequently discarded.
# Female Brown Norway (BN) rats (n=10/group) were immunized by ID delivery using Microneedles (34 gauge needle inserted into a 3.5″ long catheter to an exposed needle length of 1.0 mm). ID delivery by Microneedles consisted of 2 bolus injections of 100 μl by hand to either side of the lower back of the rat, approximately 10 seconds in duration (each bolus), using an attached 1 cc syringe. […]
# [4] = tested on: trivalent test antigen (New Calcdonia, Panama and B-Hong Kong); set-up: species or system Hartley Guinea Pigs; conditions: guinea pig, in vivo
# guinea pig skin = assay: Guinea pig erythema Draize scoring after ID delivery of excipients; format: in vivo, Hartley guinea pigs; conditions: Tween 80 5%, Deoxycholate 0.1%, D-sorbitol 5%, Lutrol 15%; without antigen, 50 ul per injection, 34 gauge 1.0 mm; immediate, 1 h and 24 h readings
# Text: The methods of the invention provide fundamental principles and guidelines whereby optimum parameters may be determined for delivering immunogenic compositions to the dermal compartment (including epidermal and intradermal compartments) wherein the excipients have optimum adjuvant properties and the formulations of the invention have enhanced efficacy in comparison to when the same formulation is delivered using conventional modes of delivery, including intramuscular and subcutaneous delivery. The invention provides methods wherein the formulations of the invention have been screened to have optimum concentration ranges for delivery to the optimum depth of the intradermal compartment such that they have adjuvant properties, resulting in one or more of the following properties: minimal to no skin irritation as determined and assessed using conventional modes of analysis of skin reactions using visual methods such as Draize scoring (For a typical draize scoring analysis see table below); minimal to no hemolysis as determined using standard methods known in the art, and enhanced immune response as measured by enhanced seroconversion and/or enhanced antibody titers.
# Erythema Draize scores for various excipients were determined using procedures described in Section 5.4, above. In one study, Tween™ 80 (5%), Deoxycholate (0.1%), D-sorbitol (5%) or Lutrol™ (15%) was administered (50 μl per injection) without the antigen to Hartley guinea pigs using 34 gauge, 1.0 mm needles. […] Deeper administrations will be necessary for deoycholate to be used reliably at this concentration. From left to right, the reading immediately after administration, the one-hour reading and the 24-hour reading.
# RBCs = assay: Hemolysis in blood of swine after ID Tween 80; format: in vivo, Yorkshire swine; conditions: 6 x 200 ul doses containing 5.0% Tween 80, 31 g x 1.5 mm needle, blood from systemic circulation
# Experimental: Tween™ 80 Preferred concentrations avoid hemolysis: Surfactants/detergents can lyse RBCs. Blood from Yorkshire swine that received 6×200 ul doses containing 5.0% Tween™ 80 were collected. No hemolysis was observed was in blood taken immediately from the systemic circulation. A 31 g× 1.5 mm needle was used in the study.
# intradermal tissue = assay: Excipient operating profile: maximum concentration with Draize score of 2 or less vs tissue depth (slope m)
# Text: The preferred excipients of the invention have a common operating profile in the intradermal space defined by a slope (m) value of greater than 0.125. An exemplary profile for determining the optimal operating profile is depicted in FIG. 35. The slope identifies the change in maximum operating concentration as it relates to tissue depth within the intradermal compartment. […] The concentration of excipient at the first reference point is the highest concentration at the shallowest delivery depth that allows a draize score of 2 or less. […] The concentration of excipient at the second reference point is the highest concentration at the deepest delivery depth that allows a draize score of 2 or less. For example, the distance between the first and second delivery depth can be 2 mm apart and specifically 1 mm and 3 mm deliveries. The operating slope (m) can be described by the following formula: […]
# Where C2 equals Cinfinity at D2
# Where C1 equals maximum excipient concentration at D1 with a Draize score of 2 or less
# Where Dn denotes delivery depth
# Tween™ 80 matches the preferred excipient profile. FIG. 35 illustrates an excipient selected for the intradermal tissue according to the instant invention. Tween™ 80 has a profile similar to the “Excipient-A” in the illustration having a slope greater than 0.125. Whereby a 5% v/v soln of Tween™ 80 is at the maximum operating concentration at 1.0 mm depth, and can be used successfully at 10% v/v at the 3 mm depth.
structure (smiles),measurement,setting,value
"CCCCCCCC/C=C\CCCCCCCC(=O)OCCOCC(OCCO)C1OCC(OCCO)C1OCCO (centres unmarked) [Tween 80, polysorbate 80]",immune response compared to commercial trivalent vaccine delivered IM,"[1]; Tween 80 0.9% V/V with trivalent vaccine, 34 g x 1 mm needle, murine model","higher mean titers, higher median titers and higher seroconversion"
same,seroconversion,"[1]; Tween 80 at 5% + FLUZONE, Balb/c mice, ELISA with PR8 test antigen",100%
same,Trend in immune response as indicated by ELISA signal (1:123 serum screening dilution),[1]; excipient 0.1% w/v with FLUZONE,0.829
same,Trend in immune response as indicated by ELISA signal (1:123 serum screening dilution),[1]; excipient 0.3% w/v with FLUZONE,1.599
same,Trend in immune response as indicated by ELISA signal (1:123 serum screening dilution),[1]; excipient 0.9% w/v with FLUZONE,2.647
same,increase of mean HAI titre relative to ID delivery of FLUZONE alone,"[2]; 5% Tween80 added to low or high dose FLUZONE, ID, rats, H3N2",5 fold
same,% Seroconversion (HAI Titre ≧ 10),[2]; IDHigh (9 ug HA per rat),100%
same,% Seroprotection (HAI Titre ≧ 40),[2]; IDHigh (9 ug HA per rat),100%
same,% Seroconversion (HAI Titre ≧ 10),[2]; IDLow (0.9 ug HA per rat),100%
same,% Seroprotection (HAI Titre ≧ 40),[2]; IDLow (0.9 ug HA per rat),90%
same,increase of mean ELISA titre relative to ID delivery of FLUZONE alone,[3],up to 15 fold
same,hemagglutin specific titer vs FLUZONE alone ID and FLUZONE alone IM,[4],outperformed
same,Erythema Draize scores (tolerability),guinea pig skin,reasonably well-tolerated
same,hemolysis,RBCs,No hemolysis
same,maximum operating concentration,intradermal tissue; 1.0 mm depth,5 % v/v
same,concentration that can be used successfully,intradermal tissue; 3 mm depth,10 % v/v
same,slope (maximum acceptable conc./tissue depth),"intradermal tissue; intradermal tissue, 1.0 mm vs 3 mm depth",greater than 0.125
same,draize score,"swine skin; 2% Tween 80, 3.0 mm delivery, approximately 20-24 hours after administration, Yorkshire swine",0.0
same,tolerability in the ID space,"swine skin; 5% Tween 80, swine, 31 g 1.5 mm needle",well tolerated
same,tolerability,"swine skin; 10%, delivered to 1-2 mm depth, Yorkshire swine",not well tolerated
same,Erythema Draize scores (tolerability),"swine skin; Tween 80 5%, Deoxycholate 0.1%, D-sorbitol 5%, Lutrol 15%, without antigen, 200 ul per injection, 31 gauge 1.5 mm, 1 h and 24 h readings",reasonably well-tolerated
same,erythema,swine skin; in vivo,moderate to severe erythema
same,skin reactions as a function of needle depth,swine skin; in vivo,improved with depth
